# ChEMBL document CHEMBL5729275 (2022)
# Experiment: RSV-A Assay : Hep-2 cells, (originally derived from tumors grown in irradiated-cortisonised weanling rats that had been injected with epidermoid carcinoma tissue from a person's larynx, but later found to be indistinguishable from HeLa cells by PCR DNA analysis), were used for the culturing of genotype A, “Long” strain RSV. Flasks were inoculated with RSV and viral stocks were collected once cytopathic effect (CPE) was greater than 90%. Viral stocks in 25% sucrose media were snap frozen using liquid nitrogen to increase viral stability. Viral stock titers were quantified by tissue culture infectious dose 50% (TCID50) using 8,000 cells per well and 3-fold viral dilutions across a 96-well plate, cultured for 4 days. Viral stock titers were also quantified by a plaque forming unit assay, as described elsewhere.Following extensive parameter testing, the final assay is run as follows: Hep-2 cells are seeded into the inner 60 wells of a 96-well plate at 8,000 cells per well in a volume of 50 μL using Growth Media (DMEM without phenol red, 1% L-Glut, 1% Penn/Strep, 1% nonessential amino acids, 10% heat-inactivated FBS). 2-fold serial dilutions of control and test compounds are added to the wells in duplicate in a total volume of 25 μL. Viral stock is then added to the wells at a multiplicity of infection (MOI) of 0.1 in a volume of 25 μL, bringing the total volume of each well to 100 μL. The MOI is calculated using the PFU/mL, or TCID50 if unavailable. Each 96-well plate has a control column of 6 wells with cells and virus but no compound (negative control, max CPE), a column with cells but no compound or virus (positive control, minimum CPE), and a column with no cells or virus or compound (background plate/reagent control). The control wells with cells but no virus are given an additional […], of growth media containing an equal quantity of sucrose as those wells receiving the viral stock in order to keep consistent in media and volume conditions. The outer wells of the plate are filled with 125 μL of moat media (DMEM, 1% Penn/Strep) to act as a thermal and evaporative moat around the test wells. Following a 5-day incubation period, the plates are read using ATPlite (50 uL added per well), which quantifies the amount of ATP (a measure of cell health) present in each well. Assay plates are read using the Envision luminometer.
row,Structure (SMILES),EC50 [nM]
1,Cc1ccc2cc(C(=O)NC[C@](O)(c3cc4c(c(-c5ccc(F)cc5)n3)OC[C@@]4(N)C(F)(F)F)C3CC3)cc(OC3CC3)c2n1,< 200
2,N[C@@]1(C(F)(F)F)COc2c1cc([C@@](O)(CNC(=O)c1cc(OC3CC3)c3[nH]c(=O)ccc3c1)C1CC1)nc2-c1ccc(F)cc1,> 200
3,N[C@@]1(C(F)(F)F)COc2c1cc([C@@](O)(CNC(=O)c1cc(OC3CC3)c3nc(Cl)ccc3c1)C1CC1)nc2-c1ccc(F)cc1,< 200
4,N[C@@]1(C(F)(F)F)COc2c1cc([C@@](O)(CNC(=O)c1cc(OC3CC3)c3c(ccc[n+]3[O-])c1)C1CC1)nc2-c1ccc(F)cc1,> 200
5,Cn1cc2cc(C(=O)NC[C@](O)(c3cc4c(c(-c5ccc(F)cc5)n3)OC[C@@]4(N)C(F)(F)F)C3CC3)cc(OC3CC3)c2n1,< 200
6,Cn1cc2cc(C(=O)NC[C@](O)(c3cc4c(c(-c5ccc(F)cc5)n3)OC[C@@]4(N)C(F)(F)F)C3CC3)cc(F)c2n1,< 200
